Measured values: patent publication US20240091162A1, “COMPOSITIONS AND METHODS FOR TREATING DEPRESSION AND ANXIETY” (THE TRUSTEES OF COLUMBIA UNIVERSITY IN THE CITY OF NEW YORK, priority 2021, published 2024)

Legend:
[1] = in vivo FLX pharmacokinetic study and in vivo imaging of model drug distribution after delivery by microburs; conditions: after delivery by MBs
[2] = in vivo
[3] = release of nanoparticles / SSRI from microbur and mesoporous silica nanoparticles; assay type: physicochemical

| model drug distribution (in vivo imaging system) [1] | FLX release profile from MB ([3]; MB with different structures) | release of SSRI from MSN ([3]; from a 42 nm-sized MSN) | SMILES | dispersion of FLX in the intestine [2] |
| --- | --- | --- | --- | --- |
| selective dispersion of drug in the gut |  |  | O=C1OC2(c3ccc(O)cc3Oc3cc(O)ccc32)c2ccccc21 [Fluorescein] |  |
|  | sustainable FLX release profile | controlled release | CNCCC(Oc1ccc(C(F)(F)F)cc1)c1ccccc1 (stereo not shown) [Fluoxetine, fluoxetine] | local dispersion of FLX on small intestine epithelium |
